From patent US20190031676A1, “ANTIBACTERIAL ANNULATED PYRROLIDIN-2-ONE DERIVATIVES” (priority 2015, published 2019)
In brackets after ≈: the same amount, converted by molar mass.

Columns and labels:
Assay in all cases: Bacterial growth minimal inhibitory concentration (microdilution, cation-adjusted Mueller-Hinton Broth)
Assay type in all cases: cell-based
E. coli ATCC25922 = details: quinolone-sensitive strain; for MIC: Escherichia coli, ATCC25922
Method: (§1) Minimal Inhibitory Concentrations (MICs; mg/L) were determined in cation-adjusted Mueller-Hinton Broth by a microdilution method following the description given in “Methods for Dilution Antimicrobial Susceptibility Tests for Bacteria that grow Aerobically”, Approved standard, 7th ed., Clinical and Laboratory Standards Institute (CLSI) Document M7-A7, Wayne, Pa., USA (2006).
(§2) All Example compounds were tested against several Gram-positive and Gram-negative bacteria. […] K. pneumoniae A-651 is a multiply-resistant strain (in particular quinolone-resistant), while E. coli ATCC25922 and P. aeruginosa ATCC27853 are quinolone-sensitive strains.

K. pneumoniae A-651 = details: multiply-resistant strain (in particular quinolone-resistant); for MIC: Klebsiella pneumoniae, A651
Method: as §1, §2

P. aeruginosa ATCC27853 = details: quinolone-sensitive strain; for MIC: Pseudomonas aeruginosa, ATCC27853
Method: as §1, §2

SMILES	MIC for E. coli ATCC25922 (E. coli ATCC25922)	MIC for K. Pneumoniae A-651 (K. pneumoniae A-651)	MIC for P. aeruginosa ATCC27853 (P. aeruginosa ATCC27853)	MIC (E. coli ATCC25922)	MIC (K. pneumoniae A-651)	MIC (P. aeruginosa ATCC27853)
C[C@@](CCN1Cc2cc(C#CC#CC3CN(C4CC(O)C4)C3)sc2C1=O)(C(=O)NO)S(C)(=O)=O (stereo partly drawn) [Example 32, (2R)—N-hydroxy-4-(2-((1-((1r,3r)-3-hydroxycyclobutyl)azetidin-3-yl)buta-1,3-diyn-1-yl)-6-oxo-4,6-dihydro-5H-thieno[2,3-c]pyrrol-5-yl)-2-methyl-2-(methylsulfonyl)butanamide]	0.25 µg/mL	0.5 µg/mL	1 µg/mL	–	–	–
CN1C[C@H](C#CC#Cc2cc3c(s2)C(=O)N(CC[C@](C)(C(=O)NO)S(C)(=O)=O)C3)[C@H]1CF [Example 41, (2R)-4-(2-(((2S,3S)-2-(fluoromethyl)-1-methylazetidin-3-yl)buta-1,3-diyn-1-yl)-6-oxo-4,6-dihydro-5H-thieno[2,3-c]pyrrol-5-yl)-N-hydroxy-2-methyl-2-(methylsulfonyl)butanamide]	–	–	–	0.125 µg/mL (≈ 0.26 µM)	0.25 µg/mL (≈ 0.519 µM)	1 µg/mL (≈ 2.08 µM)
CN1C[C@@H](C#CC#Cc2cc3c(s2)C(=O)N(CC[C@](C)(C(=O)NO)S(C)(=O)=O)C3)C[C@@H]1CO [Example 36, (2R)—N-hydroxy-4-(2-(((3R,5R)-5-(hydroxymethyl)-1-methylpyrrolidin-3-yl)buta-1,3-diyn-1-yl)-6-oxo-4,6-dihydro-5H-thieno[2,3-c]pyrrol-5-yl)-2-methyl-2-(methylsulfonyl)butanamide]	–	–	–	0.5 µg/mL (≈ 1.01 µM)	1 µg/mL (≈ 2.03 µM)	1 µg/mL (≈ 2.03 µM)
CN1[C@@H](CO)C[C@@H]1C#CC#Cc1cc2c(s1)C(=O)N(CC[C@](C)(C(=O)NO)S(C)(=O)=O)C2 [Example 40, (2R)—N-hydroxy-4-(2-(((2R,4R)-4-(hydroxymethyl)-1-methylazetidin-2-yl)buta-1,3-diyn-1-yl)-6-oxo-4,6-dihydro-5H-thieno[2,3-c]pyrrol-5-yl)-2-methyl-2-(methylsulfonyl)butanamide]	–	–	–	0.25 µg/mL (≈ 0.521 µM)	2 µg/mL (≈ 4.17 µM)	1 µg/mL (≈ 2.09 µM)
C[C@@](CCN1Cc2cc(C#CC#C[C@@H]3C[C@H]3CO)sc2C1=O)(C(=O)NO)S(C)(=O)=O (single isomer, unassigned) [Example 1]	–	–	–	0.125 µg/mL (≈ 0.277 µM)	0.25 µg/mL (≈ 0.555 µM)	0.5 µg/mL (≈ 1.11 µM)
CC(C)N1CC(C#CC#Cc2cc3c(s2)C(=O)N(CC[C@](C)(C(=O)NO)S(C)(=O)=O)C3)C1 [Example 24, (R)—N-hydroxy-4-(2-((1-isopropylazetidin-3-yl)buta-1,3-diyn-1-yl)-6-oxo-4,6-dihydro-5H-thieno[2,3-c]pyrrol-5-yl)-2-methyl-2-(methylsulfonyl)butanamide]	–	–	–	0.25 µg/mL (≈ 0.523 µM)	0.5 µg/mL (≈ 1.05 µM)	1 µg/mL (≈ 2.09 µM)
C[C@@](CCN1Cc2cc(C#CC#CC3(CO)CC3)ccc2C1=O)(C(=O)NO)S(C)(=O)=O [Example 12, (2R)—N-hydroxy-4-(5-((1-(hydroxymethyl)cyclopropyl)buta-1,3-diyn-1-yl)-1-oxoisoindolin-2-yl)-2-methyl-2-(methylsulfonyl)butanamide]	–	–	–	0.031 µg/mL (≈ 0.0697 µM)	0.25 µg/mL (≈ 0.562 µM)	2 µg/mL (≈ 4.5 µM)
C[C@@](CCN1Cc2cc(C#Cc3ccccc3)sc2C1=O)(C(=O)NO)S(C)(=O)=O [Example 42, (2R)—N-hydroxy-2-methyl-2-(methylsulfonyl)-4-(6-oxo-2-(phenylethynyl)-4,6-dihydro-5H-thieno[2,3-c]pyrrol-5-yl)butanamide]	–	–	–	≤ 0.031 µg/mL	0.125 µg/mL (≈ 0.289 µM)	2 µg/mL (≈ 4.62 µM)
C[C@@](CCN1Cc2cc(C#CC#CC3CN([C@H]4C[C@@H](O)C4)C3)sc2C1=O)(C(=O)NO)S(C)(=O)=O [Example 31, (2R)—N-hydroxy-4-(2-((1-((1s,3s)-3-hydroxycyclobutyl)azetidin-3-yl)buta-1,3-diyn-1-yl)-6-oxo-4,6-dihydro-5H-thieno[2,3-c]pyrrol-5-yl)-2-methyl-2-(methylsulfonyl)butanamide]	0.5 µg/mL	0.5 µg/mL	1 µg/mL	–	–	–
C[C@@](CCN1Cc2cc(C#CC#CC3CN(CC4(O)COC4)C3)sc2C1=O)(C(=O)NO)S(C)(=O)=O [Example 39, (2R)—N-hydroxy-4-(2-((1-((3-hydroxyoxetan-3-yl)methyl)azetidin-3-yl)buta-1,3-diyn-1-yl)-6-oxo-4,6-dihydro-5H-thieno[2,3-c]pyrrol-5-yl)-2-methyl-2-(methylsulfonyl)butanamide]	–	–	–	1 µg/mL (≈ 1.92 µM)	2 µg/mL (≈ 3.83 µM)	2 µg/mL (≈ 3.83 µM)
CC(C)(CO)c1ccc(C#Cc2cc3c(s2)C(=O)N(CCC(C)(C(=O)NO)S(C)(=O)=O)C3)cc1 (racemic) [Reference Example 1, (2RS)—N-hydroxy-4-(2-((4-(1-hydroxy-2-methylpropan-2-yl)phenyl)ethynyl)-6-oxo-4,6-dihydro-5H-thieno[2,3-c]pyrrol-5-yl)-2-methyl-2-(methylsulfonyl)butanamide]	–	–	–	0.25 µg/mL (≈ 0.495 µM)	1 µg/mL (≈ 1.98 µM)	2 µg/mL (≈ 3.96 µM)
CNC1(C#CC#Cc2cc3c(s2)C(=O)N(CC[C@](C)(C(=O)NO)S(C)(=O)=O)C3)CC1 [Example 5, (2R)—N-hydroxy-2-methyl-4-(2-((1-(methylamino)cyclopropyl)buta-1,3-diyn-1-yl)-6-oxo-4,6-dihydro-5H-thieno[2,3-c]pyrrol-5-yl)-2-(methylsulfonyl)butanamide]	–	–	–	0.125 µg/mL (≈ 0.278 µM)	0.25 µg/mL (≈ 0.556 µM)	1 µg/mL (≈ 2.22 µM)
C[C@@](CCN1Cc2cc(C#CC#CC3(N)CC3)sc2C1=O)(C(=O)NO)S(C)(=O)=O [Example 3, (2R)-4-(2-((1-aminocyclopropyl)buta-1,3-diyn-1-yl)-6-oxo-4,6-dihydro-5H-thieno[2,3-c]pyrrol-5-yl)-N-hydroxy-2-methyl-2-(methylsulfonyl)butanamide]	–	–	–	0.25 µg/mL (≈ 0.574 µM)	0.5 µg/mL (≈ 1.15 µM)	1 µg/mL (≈ 2.3 µM)
C[C@@](CCN1Cc2cc(C#CC#C[C@H]3C[C@]3(F)CO)ccc2C1=O)(C(=O)NO)S(C)(=O)=O [Example 18, (2R)-4-(5-(((1R,2R)-2-fluoro-2-(hydroxymethyl)cyclopropyl)buta-1,3-diyn-1-yl)-1-oxoisoindolin-2-yl)-N-hydroxy-2-methyl-2-(methylsulfonyl)butanamide]	–	–	–	0.5 µg/mL (≈ 1.08 µM)	2 µg/mL (≈ 4.32 µM)	1 µg/mL (≈ 2.16 µM)
COc1ccc(-c2cc3c(s2)C(=O)N(CC[C@](C)(C(=O)NO)S(C)(=O)=O)C3)c(F)c1 [Example 2, (2R)-4-(2-(2-fluoro-4-methoxyphenyl)-6-oxo-4,6-dihydro-5H-thieno[2,3-c]pyrrol-5-yl)-N-hydroxy-2-methyl-2-(methylsulfonyl)butanamide]	–	–	–	≤ 0.063 µg/mL	0.25 µg/mL (≈ 0.548 µM)	2 µg/mL (≈ 4.38 µM)
C[C@@](CCN1Cc2cc(C#CC#CCOC(=O)N3CC(O)C3)ccc2C1=O)(C(=O)NO)S(C)(=O)=O [Example 9, (3R)-5-(2-(4-(hydroxyamino)-3-methyl-3-(methylsulfonyl)-4-oxobutyl)-1-oxoisoindolin-5-yl)penta-2,4-diyn-1-yl 3-hydroxyazetidine-1-carboxylate]	–	–	–	1 µg/mL (≈ 1.99 µM)	1 µg/mL (≈ 1.99 µM)	2 µg/mL (≈ 3.97 µM)
C[C@@](CCN1Cc2cc(C#CC#C[C@H]3C[C@@H]3[C@@H](O)CO)sc2C1=O)(C(=O)NO)S(C)(=O)=O [Example 22, (2R)-4-(2-(((1S,2S)-2-((2R)-1,2-dihydroxyethyl)cyclopropyl)buta-1,3-diyn-1-yl)-6-oxo-4,6-dihydro-5H-thieno[2,3-c]pyrrol-5-yl)-N-hydroxy-2-methyl-2-(methylsulfonyl)butanamide]	0.5 µg/mL	1 µg/mL	1 µg/mL	–	–	–
CN1C[C@@H](C#CC#Cc2cc3c(s2)C(=O)N(CC[C@](C)(C(=O)NO)S(C)(=O)=O)C3)[C@@H]1CO [Example 35, (2R)—N-hydroxy-4-(2-(((2R,3R)-2-(hydroxymethyl)-1-methylazetidin-3-yl)buta-1,3-diyn-1-yl)-6-oxo-4,6-dihydro-5H-thieno[2,3-c]pyrrol-5-yl)-2-methyl-2-(methylsulfonyl)butanamide]	–	–	–	0.5 µg/mL (≈ 1.04 µM)	2 µg/mL (≈ 4.17 µM)	1 µg/mL (≈ 2.09 µM)
C[C@@](CCN1Cc2cc(C#Cc3ccc(C4CN(C5COC5)C4)cc3)sc2C1=O)(C(=O)NO)S(C)(=O)=O [Example 29, (2R)—N-hydroxy-2-methyl-2-(methylsulfonyl)-4-(2-((4-(1-(oxetan-3-yl)azetidin-3-yl)phenyl)ethynyl)-6-oxo-4,6-dihydro-H-thieno[2,3-c]pyrrol-5-yl)butanamide]	0.25 µg/mL	1 µg/mL	2 µg/mL	–	–	–
C[C@@](CCN1Cc2cc(C#Cc3ccc(CCO)cc3)ccc2C1=O)(C(=O)NO)S(C)(=O)=O [Example 33, (2R)—N-hydroxy-4-(5-((4-(2-hydroxyethyl)phenyl)ethynyl)-1-oxoisoindolin-2-yl)-2-methyl-2-(methylsulfonyl)butanamide]	–	–	–	0.125 µg/mL (≈ 0.266 µM)	0.5 µg/mL (≈ 1.06 µM)	2 µg/mL (≈ 4.25 µM)
C[C@@](CCN1Cc2cc(C#CC#CC3CN(C(=O)OCCCO)C3)sc2C1=O)(C(=O)NO)S(C)(=O)=O [Example 34, 3-hydroxypropyl (2R)-3-((5-(4-(hydroxyamino)-3-methyl-3-(methylsulfonyl)-4-oxobutyl)-6-oxo-5,6-dihydro-4H-thieno[2,3-c]pyrrol-2-yl)buta-1,3-diyn-1-yl)azetidine-1-carboxylate]	0.25 µg/mL	0.5 µg/mL	1 µg/mL	–	–	–
C[C@@](CCN1Cc2cc(C#CC#C[C@H]3C[C@@H]3CO)sc2C1=O)(C(=O)NO)S(C)(=O)=O [Example 19, (2R)—N-hydroxy-4-(2-(((1S,2S)-2-(hydroxymethyl)cyclopropyl)buta-1,3-diyn-1-yl)-6-oxo-4,6-dihydro-5H-thieno[2,3-c]pyrrol-5-yl)-2-methyl-2-(methylsulfonyl)butanamide]	–	–	–	0.125 µg/mL (≈ 0.277 µM)	0.25 µg/mL (≈ 0.555 µM)	0.5 µg/mL (≈ 1.11 µM)
